# Assay results from ChEMBL document CHEMBL1157927, “Identification and structure-activity relationship of 8-hydroxy-quinoline-7-carboxylic acid derivatives as inhibitors of Pim-1 kinase” (Bioorg Med Chem Lett, 2010).
# How the values were obtained:
# [1] = biological target: T1, Serine/threonine-protein kinase pim-1 (Homo sapiens, UniProt P11309); assay: Inhibition of PIM1 at 10 uM
# Target sequence in this assay (P11309 whole entry, looked up): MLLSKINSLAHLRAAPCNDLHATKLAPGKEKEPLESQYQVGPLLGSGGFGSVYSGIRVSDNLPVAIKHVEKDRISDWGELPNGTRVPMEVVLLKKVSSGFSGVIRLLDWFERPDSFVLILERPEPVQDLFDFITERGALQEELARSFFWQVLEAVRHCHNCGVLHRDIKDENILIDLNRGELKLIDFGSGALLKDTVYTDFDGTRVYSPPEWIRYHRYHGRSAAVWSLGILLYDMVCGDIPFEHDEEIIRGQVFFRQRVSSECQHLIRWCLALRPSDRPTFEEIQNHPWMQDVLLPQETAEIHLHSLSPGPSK
# [2] = biological target: T1, Serine/threonine-protein kinase pim-1; assay: Inhibition of PIM1
# Target sequence in this assay (P11309 whole entry): as the sequence (P11309 whole entry, looked up) above
# [3] = biological target: Casein kinase I isoform alpha (Homo sapiens, UniProt P48729); assay: Inhibition of CK1
# [4] = biological target: T2, Dual specificity tyrosine-phosphorylation-regulated kinase 2 (Homo sapiens, UniProt Q92630); assay: Inhibition of DYRK2
# T2 sequence (Q92630 whole entry): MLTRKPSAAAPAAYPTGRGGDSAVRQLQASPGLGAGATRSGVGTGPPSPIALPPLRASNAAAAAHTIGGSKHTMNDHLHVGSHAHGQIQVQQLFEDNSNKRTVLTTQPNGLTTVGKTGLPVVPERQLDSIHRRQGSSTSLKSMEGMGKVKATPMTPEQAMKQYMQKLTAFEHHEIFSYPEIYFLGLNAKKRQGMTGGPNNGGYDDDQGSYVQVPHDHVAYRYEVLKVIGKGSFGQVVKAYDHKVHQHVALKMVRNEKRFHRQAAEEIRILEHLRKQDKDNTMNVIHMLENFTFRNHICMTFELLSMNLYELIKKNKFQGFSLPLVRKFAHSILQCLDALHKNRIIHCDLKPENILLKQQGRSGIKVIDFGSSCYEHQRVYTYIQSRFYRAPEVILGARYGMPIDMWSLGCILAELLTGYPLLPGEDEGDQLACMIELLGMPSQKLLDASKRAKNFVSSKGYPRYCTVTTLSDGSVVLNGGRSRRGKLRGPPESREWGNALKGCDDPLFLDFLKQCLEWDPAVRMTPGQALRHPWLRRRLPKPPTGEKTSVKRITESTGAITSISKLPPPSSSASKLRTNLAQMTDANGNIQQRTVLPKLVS
# [5] = biological target: Dual specificity protein kinase CLK1 (Homo sapiens, UniProt P49759); assay: Inhibition of CLK1
# CDK1/Cyclin A = CDK1/Cyclin A (Homo sapiens, UniProt P06493); assay: Inhibition of CDK1/Cyclin A; type: protein-complex assay
# [6] = biological target: Cyclin-dependent kinase 5/CDK5 activator 1 (Homo sapiens, UniProt Q00535); assay: Inhibition of CDK5/P25; type: protein-complex assay
# [7] = biological target: Dual specificity tyrosine-phosphorylation-regulated kinase 1A (Mus musculus, UniProt Q61214); assay: Inhibition of mouse DYRK1A expressed in Escherichia coli after 20 mins
# [8] = biological target: Cyclin-dependent kinase 1/cyclin B1 (Homo sapiens, UniProt P06493); assay: Inhibition of CDK1/cyclin B; type: protein-complex assay
# [9] = biological target: Glycogen synthase kinase-3 (Homo sapiens, UniProt P49840+P49841); assay: Inhibition of GSK3alpha/beta; type: protein assay
# Sequence of Dual specificity protein kinase CLK1 (P49759 whole entry): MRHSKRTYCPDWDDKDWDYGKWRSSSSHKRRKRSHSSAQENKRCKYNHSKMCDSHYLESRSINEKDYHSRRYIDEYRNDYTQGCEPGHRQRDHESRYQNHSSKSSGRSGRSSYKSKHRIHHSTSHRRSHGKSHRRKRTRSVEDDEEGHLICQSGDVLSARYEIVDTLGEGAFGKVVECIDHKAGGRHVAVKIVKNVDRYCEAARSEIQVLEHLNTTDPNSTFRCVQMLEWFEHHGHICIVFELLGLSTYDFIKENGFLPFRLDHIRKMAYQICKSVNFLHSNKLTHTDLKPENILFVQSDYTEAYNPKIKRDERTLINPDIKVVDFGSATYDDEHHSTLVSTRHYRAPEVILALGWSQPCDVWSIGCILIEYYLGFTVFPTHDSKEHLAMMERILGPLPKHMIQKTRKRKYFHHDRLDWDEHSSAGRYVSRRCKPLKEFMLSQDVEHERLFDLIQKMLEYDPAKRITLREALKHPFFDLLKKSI
# Sequence of Cyclin-dependent kinase 1/cyclin B1 (P06493 whole entry): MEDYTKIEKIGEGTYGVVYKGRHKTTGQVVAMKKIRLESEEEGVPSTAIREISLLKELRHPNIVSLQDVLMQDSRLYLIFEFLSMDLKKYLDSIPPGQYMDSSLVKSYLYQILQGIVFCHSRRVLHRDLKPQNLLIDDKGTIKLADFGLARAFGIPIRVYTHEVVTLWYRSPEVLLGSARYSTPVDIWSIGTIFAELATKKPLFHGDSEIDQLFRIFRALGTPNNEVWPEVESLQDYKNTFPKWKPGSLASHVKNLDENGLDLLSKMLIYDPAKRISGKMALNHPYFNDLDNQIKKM
# Sequence of Cyclin-dependent kinase 1/cyclin B1 (P14635 whole entry, further chain): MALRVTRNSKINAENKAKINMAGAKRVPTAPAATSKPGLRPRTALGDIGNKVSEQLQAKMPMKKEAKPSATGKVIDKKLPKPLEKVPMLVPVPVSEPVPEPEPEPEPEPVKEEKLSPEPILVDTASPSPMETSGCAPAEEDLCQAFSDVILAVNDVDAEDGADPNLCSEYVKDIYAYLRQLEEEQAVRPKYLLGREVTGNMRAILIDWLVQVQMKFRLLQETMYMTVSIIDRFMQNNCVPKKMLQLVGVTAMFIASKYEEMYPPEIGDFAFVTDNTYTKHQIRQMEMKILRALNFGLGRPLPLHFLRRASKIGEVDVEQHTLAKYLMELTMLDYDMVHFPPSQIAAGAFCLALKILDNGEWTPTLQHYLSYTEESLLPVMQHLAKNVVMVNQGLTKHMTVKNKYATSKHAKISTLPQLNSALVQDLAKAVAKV
# Sequence of CDK1/Cyclin A (P06493 whole entry): as the sequence (P06493 whole entry) above
# Sequence of CDK1/Cyclin A (P20248 whole entry, further chain): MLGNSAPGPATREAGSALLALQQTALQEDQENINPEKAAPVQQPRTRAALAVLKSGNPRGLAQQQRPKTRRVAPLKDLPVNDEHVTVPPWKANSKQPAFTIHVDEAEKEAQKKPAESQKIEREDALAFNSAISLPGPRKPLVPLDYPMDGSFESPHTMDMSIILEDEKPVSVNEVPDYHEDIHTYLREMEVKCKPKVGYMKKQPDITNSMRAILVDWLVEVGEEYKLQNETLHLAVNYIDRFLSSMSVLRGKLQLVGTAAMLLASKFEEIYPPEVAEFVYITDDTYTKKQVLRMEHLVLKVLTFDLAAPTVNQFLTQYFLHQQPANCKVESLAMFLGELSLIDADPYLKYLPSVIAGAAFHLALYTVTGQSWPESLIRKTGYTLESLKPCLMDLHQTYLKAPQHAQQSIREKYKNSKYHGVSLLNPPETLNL
# Sequence of Cyclin-dependent kinase 5/CDK5 activator 1 (Q00535 whole entry): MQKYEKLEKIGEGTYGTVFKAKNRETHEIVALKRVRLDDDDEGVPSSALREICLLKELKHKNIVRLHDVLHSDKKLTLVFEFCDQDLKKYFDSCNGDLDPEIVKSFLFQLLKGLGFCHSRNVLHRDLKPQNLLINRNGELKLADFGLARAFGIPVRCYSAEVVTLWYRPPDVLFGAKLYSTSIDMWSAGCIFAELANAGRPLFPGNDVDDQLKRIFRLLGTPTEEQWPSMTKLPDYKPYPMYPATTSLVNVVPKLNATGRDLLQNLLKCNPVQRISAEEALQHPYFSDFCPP
# Sequence of Cyclin-dependent kinase 5/CDK5 activator 1 (Q15078 whole entry, further chain): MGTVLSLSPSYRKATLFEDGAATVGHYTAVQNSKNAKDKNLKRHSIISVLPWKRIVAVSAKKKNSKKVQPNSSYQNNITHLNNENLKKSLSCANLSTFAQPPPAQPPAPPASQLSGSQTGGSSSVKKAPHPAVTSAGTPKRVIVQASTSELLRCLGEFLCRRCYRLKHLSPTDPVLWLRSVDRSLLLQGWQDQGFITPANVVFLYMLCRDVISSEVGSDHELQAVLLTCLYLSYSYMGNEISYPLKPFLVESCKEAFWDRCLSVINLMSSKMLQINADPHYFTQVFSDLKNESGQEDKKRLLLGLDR
# Sequence of Casein kinase I isoform alpha (P48729 whole entry, canonical isoform): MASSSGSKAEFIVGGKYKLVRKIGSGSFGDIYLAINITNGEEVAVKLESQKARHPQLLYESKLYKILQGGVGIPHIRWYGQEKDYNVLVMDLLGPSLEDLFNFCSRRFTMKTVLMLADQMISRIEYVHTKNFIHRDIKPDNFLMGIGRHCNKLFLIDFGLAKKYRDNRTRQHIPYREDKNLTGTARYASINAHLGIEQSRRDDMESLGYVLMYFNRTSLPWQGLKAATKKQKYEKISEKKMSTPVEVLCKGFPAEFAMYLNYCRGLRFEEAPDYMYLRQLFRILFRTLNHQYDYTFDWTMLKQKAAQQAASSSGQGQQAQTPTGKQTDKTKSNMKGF
SMILES,inhibition [1],IC50 [2],other results
Cc1ccc2cccc(C(=O)O)c2n1,> 50%,> 10 µM,
O=C(NCc1ccc(O)c(O)c1)c1ccc2c(Cl)cc(Cl)c(O)c2n1,> 50%,> 10 µM,
O=C(O)c1ccc2ccc(/C=C/c3ccc(O)cc3)nc2c1O,,0.7 µM,
COc1ccc(CNC(=O)Nc2ccc3ccc(C(=O)O)c(O)c3n2)cc1,,2 µM,
O=C(O)c1ccc2ccc(/C=C/c3cc(Br)c(O)c(Br)c3)nc2c1O,,2.1 µM,
Cc1ccc2c(-c3ccccc3)cc(C(=O)O)c(O)c2n1,> 50%,> 10 µM,
O=C(O)c1ccc2ccc(/C=C/c3ccc(O)cc3O)nc2c1O,,0.5 µM,
O=C(O)c1ccc2ccc(/C=C/c3ccc4c(c3)OCO4)nc2c1O,,3 µM,
O=C(O)c1ccc(O)c2nc(/C=C/c3ccc(O)c(O)c3)ccc12,< 50%,> 10 µM,
COc1cc(CNC(=O)c2ccc3ccc(C(=O)O)c(O)c3n2)cc(O)c1O,,3.3 µM,
O=C(NNc1ccccc1)c1ccc2ccc(C(=O)O)c(O)c2n1,,5.1 µM,
O=C(O)c1ccc2ccc(/C=C/c3ccc(F)c(F)c3)nc2c1O,,4.5 µM,
COc1ccc(/C=C/c2ccc3ccc(C(=O)O)c(O)c3n2)cc1O,,0.5 µM,IC50 [3]: > 10 µM; IC50 [4]: 1.1 µM; IC50 [5]: 8.3 µM; IC50 (CDK1/Cyclin A): > 10 µM; IC50 [6]: > 10 µM; IC50 [7]: 1.3 µM; IC50 [8]: > 10 µM; IC50 [9]: > 10 µM
O=C(O)c1cccc2ccc(/C=C/c3ccc(O)c(O)c3)nc12,> 50%,> 10 µM,
Nc1ccc(/C=C/c2ccc3ccc(C(=O)O)c(O)c3n2)cc1,,4 µM,
O=C(Nc1ccc(O)c(O)c1)Nc1ccc2ccc(C(=O)O)c(O)c2n1,,1 µM,
COc1cc(/C=C/c2ccc3ccc(C(=O)O)c(O)c3n2)cc(OC)c1O,,2.5 µM,
COc1cc(/C=C/c2ccc3ccc(C(=O)O)c(O)c3n2)cc(O)c1O,,3.1 µM,
O=C(O)c1cc(/C=C/c2ccc3ccc(C(=O)O)c(O)c3n2)ccc1O,,3.1 µM,
O=C(NCc1ccc(O)c(O)c1)c1ccc2ccc(C(=O)O)c(O)c2n1,> 50%,2.1 µM,
Cc1ccc2ccc(C(=O)O)c(O)c2n1,> 50%,> 10 µM,

SMILES,inhibition [1],IC50 [2],other results
COc1cc(/C=C/c2ccc3ccc(C(=O)O)c(O)c3n2)ccc1O,,2 µM,
O=C(NCc1cccc(O)c1O)c1ccc2ccc(C(=O)O)c(O)c2n1,,2.8 µM,
O=C(NCc1ccc(O)c(O)c1)Nc1ccc2ccc(C(=O)O)c(O)c2n1,,0.5 µM,
O=C(NNc1ccc([N+](=O)[O-])cc1[N+](=O)[O-])c1ccc2ccc(C(=O)O)c(O)c2n1,,3 µM,
Cc1ccc2cccc(NS(C)(=O)=O)c2n1,> 50%,> 10 µM,
O=C(NCc1ccc(O)cc1)c1ccc2cccc(C(=O)O)c2n1,> 50%,> 10 µM,
O=C(O)c1ccc2ccc(/C=C/c3cc(O)c(O)c(O)c3)nc2c1O,,5.5 µM,
O=C(NCc1cc(O)cc(O)c1)c1ccc2ccc(C(=O)O)c(O)c2n1,,0.6 µM,
COc1cc(NC(=O)c2ccc3ccc(C(=O)O)c(O)c3n2)cc(O)c1O,,1 µM,
O=C(c1ccncc1)c1ccc2ccc(/C=C/c3ccc(O)c(O)c3)nc2c1O,< 50%,> 10 µM,
O=C(O)c1ccc2ccc(CCc3ccc(O)c(O)c3)nc2c1O,> 50%,5 µM,
Oc1ccc(/C=C/c2ccc3cccc(O)c3n2)cc1O,> 50%,> 10 µM,
COc1cc(/C=C/c2ccc3ccc(C(=O)O)c(O)c3n2)cc(Cl)c1O,,4.5 µM,
O=C(O)c1ccc2ccc(/C=C/c3cccc(O)c3O)nc2c1O,,7 µM,
COc1cc(/C=C/c2ccc3ccc(C(=O)O)c(O)c3n2)cc([N+](=O)[O-])c1O,,2.8 µM,
O=C(NCc1ccc(O)cc1O)c1ccc2ccc(C(=O)O)c(O)c2n1,,0.2 µM,IC50 [3]: > 10 µM; IC50 [4]: 6.3 µM; IC50 [5]: > 10 µM; IC50 (CDK1/Cyclin A): > 10 µM; IC50 [6]: > 10 µM; IC50 [7]: 4.5 µM; IC50 [8]: > 10 µM; IC50 [9]: > 10 µM
O=C(O)c1ccc2ccc(/C=C/c3ccc([N+](=O)[O-])cc3)nc2c1O,,3.4 µM,
O=C(O)c1ccc2ccc(/C=C/c3cc(O)cc(O)c3)nc2c1O,,0.4 µM,
O=C(O)c1ccc2ccc(/C=C/c3ccc(O)c(O)c3)nc2c1O,> 50%,1.7 µM,
O=C(O)c1ccc2ccc(/C=C/c3ccccc3)nc2c1O,,3.2 µM,
